This note sets out measurements from US11926634B2, “Processes for the preparation of selective estrogen receptor degraders” (Eli Lilly and Company, priority 2022, dated 2024).

Molecules are shown by their SMILES. A value given as a limit tells only on which side of the number the result lay.

For the assay, the target named is T1, hERα (Homo sapiens, UniProt P03372).
T1 construct: ERα degradation High Content Imaging assays in MCF7 ESR1 Wild Type cells; endogenous in cells; host or cells: MCF7 (ESR1 wild type)
T1 sequence (P03372 1-595): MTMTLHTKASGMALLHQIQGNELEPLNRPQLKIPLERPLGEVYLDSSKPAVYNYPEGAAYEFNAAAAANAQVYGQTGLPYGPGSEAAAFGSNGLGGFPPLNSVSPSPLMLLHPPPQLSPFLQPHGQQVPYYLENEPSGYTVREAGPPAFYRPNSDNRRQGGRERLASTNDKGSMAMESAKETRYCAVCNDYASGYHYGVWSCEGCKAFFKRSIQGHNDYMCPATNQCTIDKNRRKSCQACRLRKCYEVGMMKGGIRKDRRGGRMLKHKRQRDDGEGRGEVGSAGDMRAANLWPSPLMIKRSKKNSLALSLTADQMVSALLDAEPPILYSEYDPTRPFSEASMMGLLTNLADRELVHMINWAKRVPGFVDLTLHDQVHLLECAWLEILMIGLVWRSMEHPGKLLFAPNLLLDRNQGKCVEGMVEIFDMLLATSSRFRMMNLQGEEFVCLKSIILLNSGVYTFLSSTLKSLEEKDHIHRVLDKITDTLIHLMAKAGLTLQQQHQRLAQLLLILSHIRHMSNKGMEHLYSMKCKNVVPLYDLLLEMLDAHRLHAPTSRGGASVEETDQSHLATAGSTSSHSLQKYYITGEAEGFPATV
The assay is described as follows: ERα degradation high content imaging assay in MCF7 cells. In kind it is cell-based. As to conditions: MCF7 ESR1 Wild Type cells; output % estrogen receptor positive cells; read-out: Relative IC50 (μM), hERα Degradation Cell Assay in MCF7 Cells. As to the method:
Cells were fixed by adding 14% paraformaldehyde (10 μL) for 30 min at RT. The cells were washed once with PBS (20 μL) and incubated with PBS (20 μL per well) containing 0.5% (v/v) TWEEN® 20 for 1 h. Cells were washed with PBS containing 0.05% TWEEN® 20 (2×) and blocked with 3% BSA in PBS containing 0.05% TWEEN® and 0.1% TRITON™ X-100 (20 μL/well) for 1 h at RT. A 1:500 dilution of Primary antibody (20 μL) (ERα (Clone SP1) monoclonal rabbit antibody #RM-9101-S, Thermo Scientific) in 1% BSA in PBS containing 0.05% TWEEN® 20 was added, the plates were sealed and incubated overnight at 4° C. The following day the cells were washed with PBS containing 0.05% TWEEN® 20 (2×) and incubated with secondary antibody ([…]) (1:1000 dilution, Goat anti-rabbit IgM ALEXA FLUOR™ 488) in PBS 1% BSA for 105 min at RT. After incubation plates were washed with PBS (2×20 μL), and PBS (20 μL) containing RNase (Sigma) (50 μg/mL) and 1:1000 propidium iodide dilution was added per well. Plates were sealed and incubated 1 h at RT (preserved from light). The plates were scanned with ACUMEN EXPLORER™ [Laser-scanning fluorescence microplate cytometer manufactured by TTP LABTECH LTD] to measure ERa. Image analysis was based on cellular fluorescent signals for identifying positive cells. Estrogen receptor positive cells were identified by mean intensity. Total intensity at 575-640 nm from propidium iodide/DNA was used to identify individual cells. Assay output was % estrogen receptor positive cells. The IC50 was determine by curve fitting to a four-parameter logistic for each output using GENE DATA™. Raw data (FLU) were plotted as nonlinear regression through […]© tool. Data was analyzed using a 4-parameter nonlinear logistic equation (four-parameter logistic concentration-response curve): Y=bot+[(top-bot)/1+(x/IC50) slope] where Y=% inhibition, x=concentration yielding y % inhibition, Bottom=minimum value of y attained by curve, Top=maximum value of y attained by curve and Slope=steepness of curve at IC50. % Inh=[(median Max−x/median Max−median Min)]×100.
`CCOC(COc1ccc(C(=O)c2c(-c3ccc(C(F)(F)F)cc3F)cnc3cc(O)ccc23)cc1)OCC`: the DC50 was over 2 µM.

Take `O=C(c1ccc(OCCN2CC(CF)C2)cc1)c1c(Cl)cnc2cc(O)ccc12`: the DC50 worked out at 0.126 ± 0.0442 µM. Turning to `O=C(c1ccc(OCCN2CC(CF)C2)cc1)c1c(-c2ccc(C(F)(F)F)cc2F)cnc2cc(O)ccc12`, the IC50 – broadly, the point on the concentration scale where inhibition reaches its midpoint – came out at 0.00216 µM. Take `CCOC(COc1ccc(C(O)c2c(-c3ccc(C(F)(F)F)cc3F)cnc3cc(O)ccc23)cc1)OCC` (stereo not shown): the DC50 is over 2 µM. As to `Oc1ccc2c(C(O)c3ccc(OCCN4CC(CF)C4)cc3)c(-c3ccc(C(F)(F)F)cc3F)cnc2c1` (stereo not shown), the DC50 stood at 0.278 ± 0.126 µM. In the case of `CCOC(COc1ccc(C2Oc3cc(C(F)(F)F)ccc3-c3cnc4cc(O)ccc4c32)cc1)OCC` (stereo not shown), the DC50 was over 2 µM.

With `O=CCOc1ccc(C2Oc3cc(C(F)(F)F)ccc3-c3cnc4cc(O)ccc4c32)cc1` (stereo not shown), the DC50 is over 2 µM.
